Laboratory results taken from the supplement of paper PMC10307832.

Key:
Assay in all cases: relative viability (nuclei count vs DMSO), 5 days (fraction); higher = more cells survive
Obatoclax + Crizotinib = compound: COC1=CC(c2cc3ccccc3[nH]2)=N/C1=C\c1[nH]c(C)cc1C [Obatoclax] + C[C@@H](Oc1cc(-c2cnn(C3CCNCC3)c2)cnc1N)c1c(Cl)ccc(F)c1Cl [Crizotinib] (partner 1 µM)
Method in brief: (§1)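 Relative viability was taken as the ratio of nuclei in treated wells to nuclei in vehicle wells. Lung cancer cell lines in 1536-well plates received compounds by pin tool one day after seeding, either one drug alone or a fixed anchor-drug dose plus five library-drug doses (not always all listed) in √10 steps. Nuclei were counted on 4× images after 5 days of treatment, and values are medians of duplicate plates.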

Bortezomib + Luminespib = compound: CC(C)C[C@H](NC(=O)[C@H](Cc1ccccc1)NC(=O)c1cnccn1)B(O)O [Bortezomib] + CCNC(=O)c1noc(-c2cc(C(C)C)c(O)cc2O)c1-c1ccc(CN2CCOCC2)cc1 [Luminespib] (partner 0.01 µM)
Method in brief: as §1

Obatoclax + Vorinostat = compound: COC1=CC(c2cc3ccccc3[nH]2)=N/C1=C\c1[nH]c(C)cc1C [Obatoclax] + O=C(CCCCCCC(=O)Nc1ccccc1)NO [Vorinostat] (partner 1 µM)
Method in brief: as §1

Bortezomib = compound: CC(C)C[C@H](NC(=O)[C@H](Cc1ccccc1)NC(=O)c1cnccn1)B(O)O [Bortezomib]
Method in brief: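 Cells of lung cancer lines were placed in 1536-well plates and kept overnight at 37 °C. Pinning then delivered five library-drug doses (not always all listed), spaced by √10, onto plates anchored with vehicle, and the cells were left 5 days without changing medium. One step fixed, permeabilised and stained them with Hoechst, and MetaXpress counted nuclei in 4× images. Viability, as a median over plates, is treated-well nuclei divided by vehicle-well nuclei, with acceptance only at control CV below 25% and at least one doubling.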

Cell Line: NCI-H650
- relative viability (Obatoclax + Crizotinib; first compound 0.01 µM): 0.717
- relative viability (Obatoclax + Crizotinib; first compound 0.03162 µM): 0.668
- relative viability (Obatoclax + Crizotinib; first compound 0.1 µM): 0.561
- relative viability (Obatoclax + Crizotinib; first compound 0.3162 µM): 0.498
- relative viability (Obatoclax + Crizotinib; first compound 1 µM): 0.323
- relative viability (Bortezomib + Luminespib; first compound 0.000632 µM): 0.731
- relative viability (Bortezomib + Luminespib; first compound 0.002 µM): 0.676
- relative viability (Bortezomib + Luminespib; first compound 0.006325 µM): 0.469
- relative viability (Bortezomib + Luminespib; first compound 0.02 µM): 0.155
- relative viability (Obatoclax + Vorinostat; first compound 0.01 µM): 0.439
- relative viability (Obatoclax + Vorinostat; first compound 0.03162 µM): 0.444
- relative viability (Obatoclax + Vorinostat; first compound 0.3162 µM): 0.418
- relative viability (Obatoclax + Vorinostat; first compound 1 µM): 0.384
- relative viability (Bortezomib; 0.000632 µM): 0.97
- relative viability (Bortezomib; 0.002 µM): 1.03
- relative viability (Bortezomib; 0.002 µM, anchor plate): 0.902
- relative viability (Bortezomib; 0.006325 µM): 0.689
- relative viability (Bortezomib; 0.02 µM): 0.281
